Results: patent US20200345689A1, “METHODS AND CO[…] RRx-001 FOR RADIOPROTECTION” (EpicentRx, Inc., priority 2018, published 2020)

Test system: bone marrow
Test: Histopathology of sternal bone marrow (cellularity grade, megakaryocytes) after sublethal TBI or sham irradiation
Assay type: in vivo, mice
Procedure: To determine the pathophysiological effects of RRx-001 on hematopoietic protection in mice, CD2F1 male mice were treated with 10 mg/kg RRx-001 or the vehicle control 24 hours prior to a sublethal dose of TBI (7 Gy at 0.6 Gy/min using High-level Cobalt-60) or sham irradiation (day 0) according to the table below.
CD2F1 male mice (n=3/group) were divided into 4 experimental groups: 1) irradiation+vehicle, 2) irradiation+RRx-001, 3) sham-irradiation+vehicle and 4) sham-irradiation+RRx-001. Either 10 mg/kg RRx-001 or the vehicle control were IP injected 24 hours prior to either irradiation or sham-irradiation (day 0). On days 2, 7, 14, 21, and 28 post-irradiation (day 0) mice were humanely euthanized. Blood, bone marrow, and sternebrae were then collected. This experiment was performed in duplicate for a total of n=6 mice/group/time point.
Sternebrae from euthanized mice (n=6/group/time point) were collected on days 2, 7, 14, 21 and 28 post-irradiation. Sternebrae were fixed in 10% zinc-buffered formalin for at least 24 hours and up to 7 days. Fixed sternebrae were decalcified for 3 hr in 12-18% sodium EDTA (pH 7.4-7.5) and specimens dehydrated using graded ethanol concentrations and embedded in paraffin. Longitudinal 4μm sections were stained with regular hematoxylin and eosin. Two board-certified pathologist conducted histopathological evaluation of the samples. One of the pathologist scored all the samples blindly. Bone marrow was evaluated in situ within sternebrae and graded (Grade 1: <10%; Grade 2: 11-30%; Grade 3: 31-60%; Grade 4: 61-89%; Grade 5: >90%) for total cellularity. Megakaryocytes were also quantified based on the average per 10 high power fields (HPF) at 400× magnification using a BX43 or BX53 microscope (Olympus, Minneapolis, Minn.). Images were captured with an Olympus DP22 camera and imported into Olympus Cellsens Standard software for review.
Blood parameters were compared between treatment groups using an analysis of variance (ANOVA). The Wilcoxon test was also used for sensitivity and to potentially address data departures from normality. A longitudinal mixed model repeated measures was also implemented to provide a more complete data analysis of the sham-irradiated treatment groups' difference in overall time profile mean based on the blood parameters. Bone marrow data (megakaryocytes and grade) statistical analysis was carried out using a parametric test consisting of a general linear model analysis of variance (ANOVA with factors consisting of treatment group and pathologist) and the Kruskal-Wallis nonparametric test. The statistical data analysis was carried out using R software (Version 3.4.3, 2016) and the graphs made using GraphPad Prism version 7.03 (GraphPad Software, La Jolla, Calif.).
To determine the effect of RRx-001 on bone marrow, a histopathological analysis of bone marrow sternebrae was performed and the cellularity, as reported by grade (grade 1: <10%; grade 2: 11-30%; grade 3: 31-60%; grade 4: 61-89%; grade 5: >90% cellularity), and megakaryocyte numbers (averaged per 10 high-powered fields; HPF) were ascertained by two pathologists, one of which scored all the samples blindly (TAS, WEC).

`O=C(CBr)N1CC([N+](=O)[O-])([N+](=O)[O-])C1` [RRx-001, 2-bromo-1-(3,3-dinitroazetidin-1-yl)ethan-1-one] was tested, and the “bone marrow cellularity compared to the vehicle control” value (7 Gy TBI, 10 mg/kg IP 24 hours prior, day 7) was “slight increase in cellularity”, the “hematopoietic recovery as determined by the grade of bone marrow cellularity compared with control” value (7 Gy TBI, 10 mg/kg IP 24 hours prior, day 14) was “significantly accelerated hematopoietic recovery” and the number of megakaryocytes (7 Gy TBI, 10 mg/kg IP, between days 7-28) was “steady increase”. The number of megakaryocytes (7 Gy TBI, 10 mg/kg IP, day 2) was “reduced”, the number of megakaryocytes (7 Gy TBI, 10 mg/kg IP, day 7) was “severely depleted” and the “bone marrow cellularity grade” value (after irradiation (7 Gy TBI), 10 mg/kg IP 24 hours prior) was 1 (grade 1: <10%). For the same compound, the number of megakaryocytes (sham-irradiated, 10 mg/kg IP, day 14, vs vehicle control) was “significantly higher than the vehicle control”, the “overall cellularity of the bone marrow” value (sham-irradiated, 10 mg/kg IP, duration of the study) was at least 90% and the “bone marrow cellularity grade” value (sham-irradiated, 10 mg/kg IP, duration of the study (days 2-28)) was 5 (grade 5: >90% cellularity).
